Test results published in ChEMBL document CHEMBL1250451, “Mechanistic insights into a Ca2+-dependent family of alpha-mannosidases in a human gut symbiont” (Nat Chem Biol, 2010).
Activity calls are given as the source filed them. The rule behind the calls is not given here.

Columns and labels:
Assay type in all cases: protein assay
[1] = biological target: T1, Alpha-1,2-mannosidase (BT_2199) (Bacteroides thetaiotaomicron) (UniProt Q8A5N9); test: Activity of Bacteroides thetaiotaomicron GH92 alpha-mannosidase GH92 alpha-mannosidase 2199 assessed as mannose release at 1 mM after 16 hrs by HPLC relative to untreated control after 16 hrs by HPLC
T1 sequence (whole entry): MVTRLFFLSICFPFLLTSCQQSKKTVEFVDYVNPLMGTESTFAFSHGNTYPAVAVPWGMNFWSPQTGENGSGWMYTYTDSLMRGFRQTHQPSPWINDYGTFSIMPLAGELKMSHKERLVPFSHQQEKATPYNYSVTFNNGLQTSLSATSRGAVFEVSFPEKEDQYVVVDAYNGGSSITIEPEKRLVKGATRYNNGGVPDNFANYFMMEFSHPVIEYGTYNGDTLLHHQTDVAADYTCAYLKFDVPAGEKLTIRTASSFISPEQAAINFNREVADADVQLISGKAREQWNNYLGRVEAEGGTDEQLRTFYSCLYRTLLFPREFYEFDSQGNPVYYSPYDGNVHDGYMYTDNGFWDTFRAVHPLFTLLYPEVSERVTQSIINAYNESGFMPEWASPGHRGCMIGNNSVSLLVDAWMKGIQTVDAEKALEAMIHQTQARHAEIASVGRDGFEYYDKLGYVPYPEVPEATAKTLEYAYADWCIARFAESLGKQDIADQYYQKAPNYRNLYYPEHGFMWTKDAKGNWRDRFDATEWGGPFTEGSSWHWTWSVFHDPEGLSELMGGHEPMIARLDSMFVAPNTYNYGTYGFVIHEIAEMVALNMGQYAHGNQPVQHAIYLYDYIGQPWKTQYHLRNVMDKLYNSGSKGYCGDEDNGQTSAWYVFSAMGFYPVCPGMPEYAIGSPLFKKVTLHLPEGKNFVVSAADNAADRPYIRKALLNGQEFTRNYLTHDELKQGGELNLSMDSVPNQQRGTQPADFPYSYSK

[2] = biological target: T2, Alpha-1,2-mannosidase (BT_1769) (Bacteroides thetaiotaomicron) (UniProt Q8A6V7); test: Activity of Bacteroides thetaiotaomicron GH92 alpha-mannosidase GH92 alpha-mannosidase 1769 assessed as mannose release at 1 mM after 16 hrs by HPLC relative to untreated control after 16 hrs by HPLC
T2 sequence (whole entry): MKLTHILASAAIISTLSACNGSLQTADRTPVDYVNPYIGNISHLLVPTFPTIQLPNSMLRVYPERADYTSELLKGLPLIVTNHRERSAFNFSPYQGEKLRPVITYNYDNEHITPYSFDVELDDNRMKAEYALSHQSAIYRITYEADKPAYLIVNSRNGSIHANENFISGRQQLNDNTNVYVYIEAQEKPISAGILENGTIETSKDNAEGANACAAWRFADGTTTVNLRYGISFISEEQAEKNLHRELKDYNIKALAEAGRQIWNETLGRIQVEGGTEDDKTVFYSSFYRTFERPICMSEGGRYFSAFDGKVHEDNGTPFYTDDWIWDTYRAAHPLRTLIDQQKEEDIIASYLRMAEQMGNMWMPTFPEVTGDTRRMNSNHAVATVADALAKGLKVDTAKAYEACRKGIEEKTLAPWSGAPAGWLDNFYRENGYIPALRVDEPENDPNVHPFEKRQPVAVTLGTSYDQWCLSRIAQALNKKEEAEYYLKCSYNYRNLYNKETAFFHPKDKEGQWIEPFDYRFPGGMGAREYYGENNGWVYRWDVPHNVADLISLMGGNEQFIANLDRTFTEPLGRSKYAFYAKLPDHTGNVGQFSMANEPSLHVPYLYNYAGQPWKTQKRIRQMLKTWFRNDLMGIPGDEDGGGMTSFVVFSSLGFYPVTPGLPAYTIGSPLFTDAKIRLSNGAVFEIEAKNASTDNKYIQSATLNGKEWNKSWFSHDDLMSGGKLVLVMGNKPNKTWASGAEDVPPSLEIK

[3] = biological target: T3, Alpha-1,2-mannosidase, putative (BT_3130) (Bacteroides thetaiotaomicron) (UniProt Q8A325); test: Activity of Bacteroides thetaiotaomicron GH92 alpha-mannosidase GH92 alpha-mannosidase 3130 assessed as mannose release at 1 mM after 16 hrs by HPLC relative to untreated control after 16 hrs by HPLC
T3 sequence (whole entry): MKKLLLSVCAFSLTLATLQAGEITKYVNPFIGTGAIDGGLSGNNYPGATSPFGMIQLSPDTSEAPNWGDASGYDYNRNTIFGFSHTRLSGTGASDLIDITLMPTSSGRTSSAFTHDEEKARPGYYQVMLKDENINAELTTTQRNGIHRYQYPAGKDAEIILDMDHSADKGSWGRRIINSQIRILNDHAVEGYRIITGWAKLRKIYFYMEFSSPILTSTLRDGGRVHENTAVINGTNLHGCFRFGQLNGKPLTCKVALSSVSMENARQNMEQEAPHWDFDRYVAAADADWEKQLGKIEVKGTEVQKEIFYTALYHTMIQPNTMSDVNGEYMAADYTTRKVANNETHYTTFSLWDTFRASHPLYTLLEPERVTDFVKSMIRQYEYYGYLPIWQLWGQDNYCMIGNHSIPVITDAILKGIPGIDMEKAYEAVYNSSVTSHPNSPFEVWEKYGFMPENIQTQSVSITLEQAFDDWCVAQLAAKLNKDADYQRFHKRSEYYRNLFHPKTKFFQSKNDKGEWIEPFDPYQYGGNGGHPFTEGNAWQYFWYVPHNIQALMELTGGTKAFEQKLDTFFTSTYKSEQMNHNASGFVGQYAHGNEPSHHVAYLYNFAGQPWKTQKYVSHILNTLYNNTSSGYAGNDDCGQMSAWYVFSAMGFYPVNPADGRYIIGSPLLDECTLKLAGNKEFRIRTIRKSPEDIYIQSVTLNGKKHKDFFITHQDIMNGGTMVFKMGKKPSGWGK

Row | Activity [1] | Activity [2] | Activity [3] [%] | Structure (SMILES)
1 | inactive | inactive | 21 | OC[C@H]1O[C@H](OC[C@H]2O[C@H](O)[C@@H](O)[C@@H](O)[C@@H]2O)[C@@H](O)[C@@H](O)[C@@H]1O
2 | 100% | 0.0023% | 4.3 | OC[C@H]1O[C@H](O[C@H]2[C@@H](O)[C@H](O)[C@@H](CO)O[C@@H]2O)[C@@H](O)[C@@H](O)[C@@H]1O
3 | inactive | – | – | OC[C@H]1O[C@H](O[C@@H]2[C@H](O)[C@@H](O)O[C@H](CO)[C@H]2O)[C@@H](O)[C@@H](O)[C@@H]1O
4 | 0.12% | 0.026% | 23 | OC[C@H]1O[C@H](O[C@H]2[C@H](O)[C@H](O)[C@@H](O)O[C@@H]2CO)[C@@H](O)[C@@H](O)[C@@H]1O
